Measured values from patent US7465727B2, “(1,10B-dihydro-2-(aminoalkyl-phenyl)-5H-pyrazolo[1,5-c][1,3]Benzoxazin-5-yl)phenyl methanone derivatives as HIV viral replication inhibitors” (priority 2005, dated 2008).
Where two headings read alike, the source gives them in different places.

Experiments:
[1] = tested on: wild type laboratory HIV strain (HIV-1 strain LAI); assay: microbe, parasite or virus in culture; format: cell-based
Experimental: (§1) The compounds were tested in a cellular assay using the MT4-LTR-EGFP cells for anti-viral activity. […] The cellular assay was performed according to the following procedure.
(§2) HIV- or mock-infected MT4-LTR-EGFP cells were incubated for three days in the presence of various concentrations of the inhibitor. Upon infection, the GFP reporter is activated by the viral tat protein. At the end of the incubation period, the GFP signal was measured. In the virus control samples (in the absence of any inhibitor) the maximal fluorescent signal was obtained. The inhibitory activity of the compound was monitored on the virus-infected cells and was expressed as EC50 and EC90. These values represent the amount of the compound required to protect 50% and 90%, respectively, of the cells from virus infection.

[2] = tested on: multi-drug resistant HIV-1 virus (HIV-1-MDR); assay: microbe, parasite or virus in culture; format: cell-based; details: for Activity class for HIV-1-MDR test (pEC50 values): MT4-LTR-EGFP cells, three days incubation, GFP signal, average where more than one run
Experimental: as §1, §2

[3] = MT4-LTR-EGFP cells, three days incubation, GFP signal, average where more than one run

Row | SMILES | EC50 ([1]; Human immunodeficiency virus 1, 72 h, MT4-LTR-EGFP cells, three days incubation, GFP signal, average where more than one run, read-out: Activity class for HIV-1-LAI test (pEC50 values) (converted)) | EC50 ([2]; Human immunodeficiency virus 1, 72 h, read-out: Activity class for HIV-1-MDR test (pEC50 values) (converted)) | Activity class for HIV-1-LAI test (pEC50 values) [1, 3] | Activity class for HIV-1-MDR test (pEC50 values) [2] | Activity class for HIV-1-LAI test (pEC50 values) [1]
1 | CCN(CC)Cc1ccc(C2=NN3C(C(=O)c4ccc(C#N)cc4)Oc4ccccc4C3C2)cc1 (stereo not drawn) [Compound 1, 4-[4-(4-cyano-benzoyl)-1,9b-dihydro-5-oxa-3,3a-diaza-cyclopenta[a]naphthalen-2-yl]-N,N-diethyl-benzylamine] | 19.1 nM | 8.71 nM | – | – | –
2 | N#Cc1ccc(C(=O)C2Oc3ccccc3C3CC(c4ccc(CNCc5ccccc5)cc4)=NN23)cc1 (stereo not drawn) [Compound 2] | – | – | 7.58 | 7.83 | –
3 | CN(C)CCN(C)Cc1ccc(C2=NN3C(C(=O)c4ccc(C#N)cc4)Oc4ccccc4C3C2)cc1 (stereo not drawn) [Compound 4] | – | – | 6.41 | 6.25 | –
4 | COc1ccc(NCc2ccc(C3=NN4C(C(=O)c5ccc(C#N)cc5)Oc5ccccc5C4C3)cc2)cc1 (stereo not drawn) [Compound 5] | – | – | – | 6.5 | 6.22
5 | N#Cc1ccc(C(=O)C2Oc3ccccc3C3CC(c4ccc(CNCc5ccccn5)cc4)=NN23)cc1 (stereo not drawn) [Compound 6] | – | – | 7.13 | 7.28 | –
6 | N#Cc1ccc(C(=O)C2Oc3ccccc3C3CC(c4ccc(CNCCN5CCCC5)cc4)=NN23)cc1 (stereo not drawn) [Compound 7] | – | – | 6.55 | 6.49 | –
7 | COc1ccc(CN(C)Cc2ccc(C3=NN4C(C(=O)c5ccc(C#N)cc5)Oc5ccccc5C4C3)cc2)cc1 (stereo not drawn) [Compound 8] | – | – | 7.81 | 7.85 | –
8 | COc1ccc(CN(C)Cc2ccc(C3=NN4C(C(=O)c5ccc(C(C)(C)C)cc5)Oc5ccccc5C4C3)cc2)cc1 (stereo not drawn) [Compound 9] | – | – | 7.28 | 7 | –
9 | CCN(CC)Cc1ccc(C2=NN3C(C(=O)c4ccc(C(C)(C)C)cc4)Oc4ccccc4C3C2)cc1 (stereo not drawn) [Compound 11] | – | – | 7.64 | 7.59 | –
10 | CCN(CC)CCc1ccc(C2=NN3C(C(=O)c4ccc(C#N)cc4)Oc4ccccc4C3C2)cc1 (stereo not drawn) [Compound 12] | – | – | 7.16 | 7.35 | –
11 | CN(Cc1ccc(C2=NN3C(C(=O)c4ccc(C#N)cc4)Oc4ccccc4C3C2)cc1)C1CCCC1 (stereo not drawn) [Compound 13] | – | – | 8.32 | 8.62 | –
12 | COc1ccc(NCCCc2ccc(C3=NN4C(C(=O)c5ccc(C#N)cc5)Oc5ccccc5C4C3)cc2)cc1 (stereo not drawn) [Compound 14] | – | – | – | 6.34 | 6.41
13 | CN(C)CCN(C)CCCc1ccc(C2=NN3C(C(=O)c4ccc(C#N)cc4)Oc4ccccc4C3C2)cc1 (stereo not drawn) [Compound 15] | – | – | 5.42 | 5.52 | –
14 | CN(C)CCCc1ccc(C2=NN3C(C(=O)c4ccc(C#N)cc4)Oc4ccccc4C3C2)cc1 (stereo not drawn) [Compound 16] | – | – | – | 5.51 | 5.6
15 | N#Cc1ccc(C(=O)C2Oc3ccccc3C3CC(c4ccc(CCCNCc5ccccc5)cc4)=NN23)cc1 (stereo not drawn) [Compound 17] | – | – | 5.56 | 5.37 | –
16 | N#Cc1ccc(C(=O)C2Oc3ccccc3C3CC(c4ccc(CCCCNCc5ccccc5)cc4)=NN23)cc1 (stereo not drawn) [Compound 18] | – | – | – | 5.47 | 5.47
17 | CCN(CC)CCCCc1ccc(C2=NN3C(C(=O)c4ccc(C#N)cc4)Oc4ccccc4C3C2)cc1 (stereo not drawn) [Compound 19] | – | – | 5.39 | 5.43 | –

Row | SMILES | EC50 ([1]; Human immunodeficiency virus 1, 72 h, MT4-LTR-EGFP cells, three days incubation, GFP signal, average where more than one run, read-out: Activity class for HIV-1-LAI test (pEC50 values) (converted)) | EC50 ([2]; Human immunodeficiency virus 1, 72 h, read-out: Activity class for HIV-1-MDR test (pEC50 values) (converted)) | Activity class for HIV-1-LAI test (pEC50 values) [1, 3] | Activity class for HIV-1-MDR test (pEC50 values) [2] | Activity class for HIV-1-LAI test (pEC50 values) [1]
18 | COc1ccc(NCCCCc2ccc(C3=NN4C(C(=O)c5ccc(C#N)cc5)Oc5ccccc5C4C3)cc2)cc1 (stereo not drawn) [Compound 20] | – | – | – | 6.51 | 7.42
19 | N#Cc1ccc(C(=O)C2Oc3ccccc3C3CC(c4ccc(CCCCNCc5ccncc5)cc4)=NN23)cc1 (stereo not drawn) [Compound 21] | – | – | 5.23 | 5.2 | –
20 | CN(C)CCN(C)CCCCc1ccc(C2=NN3C(C(=O)c4ccc(C#N)cc4)Oc4ccccc4C3C2)cc1 (stereo not drawn) [Compound 22] | – | – | 5.52 | 5.47 | –
21 | COc1ccc(CN(C)CCCCc2ccc(C3=NN4C(C(=O)c5ccc(C#N)cc5)Oc5ccccc5C4C3)cc2)cc1 (stereo not drawn) [Compound 23] | – | – | 5.38 | 5.32 | –
22 | COc1ccc(CN(C)CCCc2ccc(C3=NN4C(C(=O)c5ccc(C#N)cc5)Oc5ccccc5C4C3)cc2)cc1 (stereo not drawn) [Compound 25] | – | – | 6.53 | 5.04 | –
23 | N#Cc1ccc(C(=O)C2Oc3ccccc3C3CC(c4ccc(CCCCNCc5ccccn5)cc4)=NN23)cc1 (stereo not drawn) [Compound 26] | – | – | 5.28 | 4.86 | –
24 | CN(CCCCc1ccc(C2=NN3C(C(=O)c4ccc(C#N)cc4)Oc4ccccc4C3C2)cc1)C1CCCC1 (stereo not drawn) [Compound 27] | – | – | 5.36 | 5.15 | –
25 | COc1ccc(CN(C)Cc2ccc(C3=NN4C(C(=O)c5ccc(S(C)(=O)=O)cc5)Oc5ccccc5C4C3)cc2)cc1 (stereo not drawn) [Compound 29] | – | – | 8.47 | 8.56 | –
26 | CCN(CC)Cc1ccc(C2=NN3C(C(=O)c4ccc(S(C)(=O)=O)cc4)Oc4ccccc4C3C2)cc1 (stereo not drawn) [Compound 30] | – | – | 7.9 | 7.95 | –
27 | N#Cc1ccc(C(=O)C2Oc3ccccc3C3CC(c4ccc(CCCNCc5ccccn5)cc4)=NN23)cc1 (stereo not drawn) [Compound 31] | – | – | 4.85 | 5.38 | –
28 | COc1ccc(CN(C)CCc2ccc(C3=NN4C(C(=O)c5ccc(C#N)cc5)Oc5ccccc5C4C3)cc2)cc1 (stereo not drawn) [Compound 32] | – | – | 7.08 | 6.72 | –
29 | N#Cc1ccc(C(=O)C2Oc3ccccc3C3CC(c4ccc(CCNCc5ccccc5)cc4)=NN23)cc1 (stereo not drawn) [Compound 33] | – | – | 6.35 | 6.07 | –
30 | CN(C)CCN(C)CCc1ccc(C2=NN3C(C(=O)c4ccc(C#N)cc4)Oc4ccccc4C3C2)cc1 (stereo not drawn) [Compound 34] | – | – | 6.25 | 6.12 | –
31 | CN(CCCc1ccc(C2=NN3C(C(=O)c4ccc(C#N)cc4)Oc4ccccc4C3C2)cc1)C1CCCC1 (stereo not drawn) [Compound 35] | – | – | 5.76 | 5.81 | –
32 | CN(Cc1ccc(C2=NN3C(C(=O)c4ccc(C#N)cc4)Oc4ccccc4C3C2)cc1)Cc1ccc(N(C)C)cc1 (stereo not drawn) [Compound 36] | – | – | 7.45 | 7.18 | –
33 | CN(C)c1ccc(CNCc2ccc(C3=NN4C(C(=O)c5ccc(C#N)cc5)Oc5ccccc5C4C3)cc2)cc1 (stereo not drawn) [Compound 37] | – | – | 6.12 | 6.31 | –
